How the values were obtained:
[1] = Cytotoxicity of the compounds alone against drug-resistant cancer cells; conditions: human, MDA-435/LCC-MDR cells (drug-resistant cancer cells)
Protocol: (§1) The treatment consisted of concurrent exposure of MDA-435/LCC-MDR cells to paclitaxel in the presence or absence of the compounds reversing agent (1 μM) for 72 h in vitro. Assessment of cytotoxicity, i.e. cell growth inhibition, was determined according to the methods of Skehan, et al. as discussed in J. Nat.
(§2) Briefly, cells were plated between 400 and 1200 cells/well in 96 well plates and incubated at 37° C. for 15-18 h prior to drug addiction to allow attachment of cells. Compounds were solubilized in 100% DMSO and further diluted in RPMI-1640 containing 10 mM HEPES. After a 72 h incubation, 100 μl of ice-cold 50% TCA was added to each well and incubated for 1 h at 40° C. Plates were then washed 5 times with tap water to remove TCA, low-molecular weight metabolites and serum proteins. Suforhodamine B (SRB) (0.4%, 50 μl) was added to each well. Following a five minute incubation at room temperature, plates were rinsed 5 times with 0.1% acetic acid and air dried. Bound dye was solubilized with 10 mM Tris Base (pH 10.5) for 5 mm on a gyratory shaker. Optical density was measured at 570 nm.

[2] = tested on: drug-resistant cancer cells
Protocol: as §1, §2

[3] = tested on: drug-resistant breast cancer cells MDA-435/LCC6-MDR; assay: Cytostatic activity of paclitaxel alone or in combination with the compounds (SRB cell growth inhibition); format: cell-based; conditions: IC50 of paclitaxel alone or in presence of compound (reversing agent, 1 μM), MDA-435/LCC6-MDR cells, 72 h
Protocol: The compounds were then evaluated in combination with paclitaxel for their cytostatic activity against the drug-resistant breast cancer cells MDA-435/LCC6-MDR.
In the experiments, the compounds were used in combination with paclitaxel, the paclitaxel being at a concentration of 0.3 μM.
Cancer Inst, 82, 1107, 1990.

Compound | IC50 at 72 h [1] [nM] | also measured
COc1cc(C=CC(=O)c2c(OCC=C(C)C)ccc3c(=O)c4ccccc4oc23)cc(OC)c1OC [VIB 178, 1-[3-(3-Methylbut-2-Enyloxy)Xanthen-9-one-4-yl]-3-(3,4,5-Tri-Methoxyphenyl)-Propen-1-one] | > 1000 | 
1-[3-Methyl-7-(Prop-2-ynyloxy)flavon-8-yl]-Phenyl-Propen-1-one [VIB 167] |  | IC50 [2]: > 1000 nM
COc1cc(C=CC(=O)c2c(OCC=C(C)C)ccc3c(=O)c(C)c(-c4ccccc4)oc23)cc(OC)c1OC [VIB 173, 1-[3-Methyl-7-(3-Methylbut-2-Enyloxy)Flavon-8-yl]-3-(3,4,5-Tri-Methoxy)Phenyl-Propen-1-one] | > 1000 | 
CC(=O)O[C@H]1C(=O)[C@@]2(C)[C@H]([C@H](OC(=O)c3ccccc3)[C@]3(O)C[C@H](OC(=O)[C@H](O)[C@@H](NC(=O)c4ccccc4)c4ccccc4)C(C)=C1C3(C)C)[C@]1(OC(C)=O)CO[C@@H]1C[C@@H]2O [Paclitaxel, paclitaxel] |  | IC50 [3]: 426 nM
